Results published in patent publication EP0186977A2, “Renin-inhibitory dipeptides, their preparation and use” (SANKYO COMPANY LIMITED, priority 1984, dated 1986).

Biological target: T1, human renin (Homo sapiens, UniProt P00797)
T1 sequence (P00797 67-406): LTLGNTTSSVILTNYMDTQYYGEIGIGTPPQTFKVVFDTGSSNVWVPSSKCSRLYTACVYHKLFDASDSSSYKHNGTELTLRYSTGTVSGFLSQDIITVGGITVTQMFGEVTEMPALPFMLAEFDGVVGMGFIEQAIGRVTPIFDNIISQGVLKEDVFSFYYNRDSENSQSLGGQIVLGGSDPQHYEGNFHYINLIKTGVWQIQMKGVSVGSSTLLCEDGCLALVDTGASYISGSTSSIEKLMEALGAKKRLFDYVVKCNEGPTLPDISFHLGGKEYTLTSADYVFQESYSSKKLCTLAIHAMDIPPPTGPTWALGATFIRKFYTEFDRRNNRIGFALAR
Assay: Inhibition of renin activity (human renin with sheep angiotensinogen, assay of remaining angiotensin I)
Type: biochemical
Details: 1 x 10 ^6M of the test compound, phosphate buffer pH 7.3, 10 minutes at 37°C, mean of 3 or 4 experiments
Experimental: The ability of various compounds of the invention to inhibit the activity of renin was determined according to the following method, which follows essentially the procedure of Kokubu et al. [Hypertension, 5, 191-197 (1983)].
Specifically, each test compound was dissolved in 60% v/v aqueous ethanol. Human renin activity in the presence and absence of each compound was measured using sheep angiotensinogen. The total volume of 1 ml of assay mixture contained 0.1 mole/litre phosphate buffer (pH 7.3), human renin (equivalent to 0.5 ng angiotensin I per ml per minute), sheep angiotensinogen (equivalent to 200 ng angiotensin 1), 1 x 10 ^6M of the test compound, 6% v/v ethanol and angiotensinase inhibitors (10 mmole/litre sodium ethylenediaminetetraacetate and 3.4 mmole/litre 8-hydroxyquinoline). The mixture was allowed to react for 10 minutes at 37°C, and then the reaction was stopped by placing the reaction tube in a boiling water bath for 5 minutes. The mixture was then centrifuged and the supernatant (0.05-0.1 ml) was used to assay remaining angiotensin I.
An identical experiment was carried out, as a control, except that the test compound was omitted. From the values obtained were calculated the % inhibition of renin activity achieved by each test compound. The results are shown in the following Table, in which the compounds of the invention are identified by the numbers assigned to them in the foregoing list. The values given are the mean of 3 or 4 experiments.
The isomers of these test compounds employed in these experiments are those isomers prepared as described in the subsequent Examples.

## CC[C@H](C)CNC(=O)C[C@H](O)[C@H](CC(C)C)NC(=O)[C@H](Cc1c[nH]cn1)NC(=O)C(Cc1cccc2ccccc12)Cc1cccc2ccccc12 [Compound No. 74, 4(S)-{N-[Bis(1-naphthylmethyl)acetyl]-L-histidyl-amino}-3(S)-hydroxy-6-methyl-N-[2(S)-(-)-methylbutyl]-heptanamide]
  inhibition at 1 µM: 98.2%

## CC[C@H](C)[C@@H](CO)NC(=O)C[C@H](O)[C@H](CC(C)C)NC(=O)[C@H](CCC(N)=O)NC(=O)C(Cc1cccc2ccccc12)Cc1cccc2ccccc12 [compound 208, N-[4(S)-{N-[Bis(1-naphthylmethyl)acetyl]-L-glutaminylamino}-3(S)-hydroxy-6-methylheptanoyl]-L-isoleucinol]
  inhibition at 1 µM: 93%

## CC[C@H](C)[C@@H](CO)NC(=O)C[C@H](O)[C@H](CC(C)C)NC(=O)[C@H](CCC(=O)O)NC(=O)C(Cc1cccc2ccccc12)Cc1cccc2ccccc12 [compound 212]
  inhibition at 1 µM: 92%

## CCOCCNC(=O)C[C@H](O)[C@H](CC(C)C)NC(=O)[C@H](CC(C)C)NC(=O)C(Cc1cccc2ccccc12)Cc1cccc2ccccc12 [compound 45, 4(S)-{N-[Bis(1-naphthylmethyl)acetyl]-L-leucylamino}-3(S)-hydroxv-6-methvl-N-(2-ethoxyethvl)heptanamide]
  inhibition at 1 µM: 99%

## CC[C@H](C)[C@@H](CO)NC(=O)C[C@H](O)[C@H](CC(C)C)NC(=O)[C@H](Cc1c[nH]cn1)NC(=O)C(Cc1cccc2ccccc12)Cc1cccc2ccccc12 [Compound No. 72, N-[4(S)-{N-[Bis(1-naphthylmethyl)acetyl]-L-histidylamino}-3(S)-hydroxy-6-methylheptanoyl]-L-isoleucinol]
  inhibition at 1 µM: 99%

## CCCC[C@H](NC(=O)C(Cc1cccc2ccccc12)Cc1cccc2ccccc12)C(=O)N[C@@H](CC(C)C)[C@@H](O)CC(=O)N[C@H](CO)[C@@H](C)CC [Compound No. 88, N-[4(S)-{N-[Bis(1-naphthylmethyl)acetyl]-L-norleucylamino}-3(S)-hydroxy-6-methylheptanoyl]-L-isoleucinol]
  inhibition at 1 µM: 99%

## CCCCCC(NC(=O)C(Cc1cccc2ccccc12)Cc1cccc2ccccc12)C(=O)N[C@@H](CC(C)C)[C@@H](O)CC(=O)NCC(C)CC (stereo partly drawn) [compound 274]
  inhibition at 1 µM: 99%

## CCCCCCCC(NC(=O)C(Cc1cccc2ccccc12)Cc1cccc2ccccc12)C(=O)N[C@@H](CC(C)C)[C@@H](O)CC(=O)N[C@H](CO)[C@@H](C)CC (stereo partly drawn) [Compound No. 286, N-[4(S)-{2(RS)-(Bis(1-naphthylmethyl)acetyl]amino-nonanovl}amino-3(S)-hydroxv-6-methylheptanoyl]-L-isoleucinol]
  inhibition at 1 µM: 99%

## CC[C@H](C)[C@@H](CO)NC(=O)C[C@H](O)[C@H](CC(C)C)NC(=O)C(Cc1cscn1)NC(=O)C(Cc1cccc2ccccc12)Cc1cccc2ccccc12 (mixture of isomers) [Compound No. 223, N-[4(S)-{N-[Bis(1-naphthylmethyl)acetyl]-3-(4-thiazolyl)-DL-alanylamino}-3(S)-hydroxy-6-methyl-heptanoyl]-L-isoleucinol]
  inhibition at 1 µM: 95%

## C=CCC(NC(=O)C(Cc1cccc2ccccc12)Cc1cccc2ccccc12)C(=O)N[C@@H](CC(C)C)[C@@H](O)CC(=O)N[C@H](CO)[C@@H](C)CC (mixture of isomers) [compound 291, N-[4(S)-{N-[Bis(1-naphthylmethyl)acetyl]-DL-allylglycylamino}-3(S)-hydroxy-6-methylheptanoyl]-L-isoleucinol]
  inhibition at 1 µM: 99%

## CC[C@H](C)[C@@H](CO)NC(=O)C[C@H](O)[C@H](CC(C)C)NC(=O)[C@H](CCSC)NC(=O)C(Cc1cccc2ccccc12)Cc1cccc2ccccc12 [Compound No. 196, N-[4(S)-{N-[Bis(1-naphthylmethyl)acetyl]-L-methionyl-amino}-3(S)-hydroxy-6-methylheptanoyl]-L-isoleucinol]
  inhibition at 1 µM: 93.5%

## CC(C)C[C@H](NC(=O)C(CCCCc1ccccc1)Cc1cccc2ccccc12)C(=O)N[C@@H](CC(C)C)[C@@H](O)CC(=O)NCCN1CCOCC1 (stereo partly drawn) [compound 15]
  inhibition at 1 µM: 93.5%
